These results are taken from ChEMBL document CHEMBL1130463, “Chemoenzymatic synthesis and characterization of a new type of carbohydrate-based cationic antimicrobial agents” (1997).

Each structure is given as a SMILES string.

Assay type in all cases: functional
Experiment [1] deals with Vibrio alginolyticus. The experiment in a line: Minimum inhibitory concentration required for the inhibition of Vibrio alginolyticus.
For experiment [2], the system named is Micrococcus luteus. The experiment in a line: Minimum inhibitory concentration required for the inhibition of Micrococcus luteus.
The subject of experiment [3] is Fusarium oxysporum. Description: Minimum inhibitory concentration required for the inhibition of Fusarium oxysporum.

Broadly, the MIC is the smallest concentration in the dilution series that meets the test's criterion for growth inhibition. With `CCCCCCCCCCCCCCCCCCCCCCCCCCCCCC(=O)OC[C@@H]1OC(OCCC[N+](C)(C)C)[C@@H](O)[C@@H](O)[C@@H]1O.[I-]` (some centres undefined), the MIC in experiment [1] came out at 2000 µg/mL; in experiment [2] it was 1000 µg/mL.

Turning to `CCCCCCCCCCCCCCCCCCCCCCCCCC(=O)OC[C@@H]1OC(OCCC[N+](C)(C)C)[C@@H](O)[C@@H](O)[C@@H]1O.[I-]` (some centres undefined), the MIC in experiment [1] worked out at 2000 µg/mL; in experiment [2], 50 µg/mL.

With `CCCCCCCCCCCCCCCCCCCCCC(=O)OC[C@@H]1OC(OCCC[N+](C)(C)C)[C@@H](O)[C@@H](O)[C@@H]1O.[I-]` (some centres undefined), the MIC in experiment [1] is 500 µg/mL; in experiment [3] it was 500 µg/mL; in experiment [2] it was 10 µg/mL.

With `CCCCCCCCCCCCCCCCCC(=O)OC[C@@H]1OC(OCCC[N+](C)(C)C)[C@@H](O)[C@@H](O)[C@@H]1O.[I-]` (some centres undefined), the MIC in experiment [1] and in experiment [2] was 2000 µg/mL each time.
